The values that follow come from patent publication US10442793B2, “Oxa spiro derivative, preparation method therefor, and applications thereof in medicines” (Jiangsu Hengrui Medicine Co., Ltd., priority 2015, dated 2019).

Read-outs that look alike come from different tables or passages of the source.

This test concerns the target T1, μ-opioid receptors (MOR) (Homo sapiens, UniProt P35372).
T1 construct: host or cells: HEK293
Kind of test: MOR activity test: HEK293/MOR/CRE luciferase reporter, agonizing MOR and affecting downstream cAMP levels. The format is cell-based. The note with it: for Emax: HEK293, maximum effect of TRV-130 is 100%, read-out: Emax on agonizing MOR receptor and affecting cAMP levels. The source says: The compounds of the present invention can activate μ-opioid receptors (MOR). Activated MOR can regulate intracellular cAMP levels, and cAMP enters the nucleus and binds to the CRE region of the reporter gene luciferase, thereby initiating the expression of the reporter gene. Luciferase can react with its substrate to emit fluorescence, and the measured fluorescence signals reflect the agonistic activity of the compounds.
The activity of the test example compounds on agonizing MOR and affecting downstream cAMP levels was tested by the following method.
MOR/pcDNA3.1 (+) and CRE/pGL4.29 were transferred into HEK293 cells. G418 and hygromycin were added into the culture medium, and HEK293/MOR/CRE monoclonal cell lines were screened in a 96-well cell culture plate.
HEK293/MOR/CRE monoclonal cells were cultured in a DMEM/high glucose medium (10% FBS, 1 mg/ml G418, 200 μg/ml hygromycin, mixed uniformly), and passaged every 3 days. On the day of the experiment, a cell suspension was prepared with a fresh cell medium, added to a 96 well plate (BD, #356692) with 20,000 cells/well, and incubated in 5% CO2 at 37° C. On the second day, the compound was dissolved in pure DMSO at a concentration of 20 mM, then formulated with DMSO to a first concentration of 4 mM and diluted in 10 fold concentration gradient to 6 concentrations. Then, 90 μl of DMSO was added to blank and control wells. Then, formulated compound was prepared by adding 2.5 μl of the compound solutions formulated in DMSO at a gradient concentration to 97.5 μl of a fresh cell culture medium containing 5 μM foscolin. Then, 10 μl of the formulated compound was added to the cell culture plate to make the final concentration of the compound 10000, 1000, 100, 10, 1, 0.1, or 0.01 nM, and the plate was incubated at 37° C., in 5% CO2 for 5 hours. In a 96-well cell culture plate, 100 μl of luciferase assay solution (Promega, # E6110) was added to each well. The plate was placed in the dark at room temperature for 10-15 minutes, blowed and aspirated 10 times, and 100 μl were pipetted to a 96 well white plate. The chemiluminescence signal values were read in a microplate reader (PE, Victor3), and the read data was processed using software.
The activity of the compounds of the present invention on agonizing MOR and affecting downstream cAMP levels was determined by the above test, and the EC50 values are shown in Table 1.1.

T1 sequence (P35372 whole entry): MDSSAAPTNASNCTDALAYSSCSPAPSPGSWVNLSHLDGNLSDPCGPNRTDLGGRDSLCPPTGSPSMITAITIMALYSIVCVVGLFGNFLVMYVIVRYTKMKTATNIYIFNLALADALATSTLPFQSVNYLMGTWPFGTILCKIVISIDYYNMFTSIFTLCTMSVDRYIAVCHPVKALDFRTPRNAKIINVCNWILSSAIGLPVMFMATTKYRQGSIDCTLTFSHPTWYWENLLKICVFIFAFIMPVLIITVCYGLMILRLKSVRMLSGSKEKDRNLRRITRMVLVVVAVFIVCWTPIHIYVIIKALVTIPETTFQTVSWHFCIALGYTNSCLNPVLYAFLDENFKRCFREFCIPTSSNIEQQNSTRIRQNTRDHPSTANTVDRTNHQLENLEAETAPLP

As usually defined, the EC50 is the concentration that produces a half-maximal response. The Emax is the greatest response seen or fitted, relative to the assay's reference. For the compound `c1ccc([C@]2(CCN[C@H]3CCCc4ccccc43)CCOC3(CCCC3)C2)nc1` [Example 10, (S)-N-(2-((R)-9-(pyridin-2-yl)-6-oxaspiro[4.5]decan-9-yl)ethyl)-1,2,3,4-tetrahydronaphthalen-1-amine], it took 4 nM to reach a half-maximal effect (EC50) and the Emax came out at 113%.
The matching figures for `c1ccc([C@]2(CCN[C@@H]3CCCc4ccccc43)CCOC3(CCCC3)C2)nc1` [Example 9, (R)-N-(2-((R)-9-(pyridin-2-yl)-6-oxaspiro[4.5]decan-9-yl)ethyl)-1,2,3,4-tetrahydronaphthalen-1-amine]: > 10000 nM and 48%.
Regarding `c1ccc([C@]2(CCN[C@@H]3CCOc4ccccc43)CCOC3(CCCC3)C2)nc1` [Example 7, (R)-N-(2-((R)-9-(pyridin-2-yl)-6-oxaspiro[4.5]decan-9-yl)ethyl)chroman-4-amine], the EC50 is > 10000 nM and the maximum response (Emax) worked out at 0%.
On the same counts, the results for `CO[C@@H]1CC[C@H](NCC[C@@]2(c3ccccn3)CCOC3(CCCC3)C2)c2ccccc21` [Example 30, (1S,4R)-4-methoxy-N-(2-((R)-9-(pyridin-2-yl)-6-oxaspiro[4.5]decan-9-yl)ethyl)-1,2,3,4-tetrahydronaphthalen-1-amine] are 2 nM and 126%.
Regarding `N#CCC1CC[C@H](NCC[C@@]2(c3ccccn3)CCOC3(CCCC3)C2)c2ccccc21` (stereo partly drawn) [Example 32, 2-((4S)-4-((2-((R)-9-(pyridin-2-yl)-6-oxaspiro[4.5]decan-9-yl)ethyl)amino)-1,2,3,4-tetra hydronaphthalen-1-yl)acetonitrile], the Emax is 133%. Also, the EC50 (HEK293/MOR/CRE cells, 5 h incubation, forskolin, read-out: EC50 on agonizing MOR receptor and affecting cAMP levels) came out at 0.8 nM.
In the case of `c1ccc([C@]2(CCN[C@@H]3CCc4ccccc43)CCOC3(CCCC3)C2)nc1` [Example 15, (R)-N-(2-((R)-9-(pyridin-2-yl)-6-oxaspiro[4.5]decan-9-yl)ethyl)-2,3-dihydro-1H-inden-1-amine], the EC50 was > 10000 nM and the Emax was 0%.
The matching figures for `COC[C@@H]1CC[C@H](NCC[C@@]2(c3ccccn3)CCOC3(CCCC3)C2)c2ccccc21` [Example 23, (1S,4R)-4-(methoxymethyl)-N-(2-((R)-9-(pyridin-2-yl)-6-oxaspiro[4.5]decan-9-yl)ethyl)-1,2,3,4-tetrahydronaphthalen-1-amine]: 5 nM and 120%.
Turning to `O[C@H]1Cc2ccccc2[C@@H]1NCCC1(c2ccccn2)CCOC2(CCCC2)C1` (stereo partly drawn) [Example 18, (1S,2S)-1-((2-(9-(pyridin-2-yl)-6-oxaspiro[4.5]decan-9-yl)ethyl)amino)-2,3-dihydro-1H-inden-2-ol], the EC50 was > 10000 nM and the Emax turned out to be 4%.
Take `Fc1ccc2c(c1)C(NCC[C@@]1(c3ccccn3)CCOC3(CCCC3)C1)CCO2` (stereo partly drawn) [Example 8, 6-fluoro-N-(2-((R)-9-(pyridin-2-yl)-6-oxaspiro[4.5]decan-9-yl)ethyl)chroman-4-amine]: the EC50 turned out to be 3 nM and the Emax was determined as 114%.
On the same counts, the results for `CO[C@@H]1Cc2ccccc2[C@H]1NCC[C@@]1(c2ccccn2)CCOC2(CCCC2)C1` [Example 4, (1R,2R)-2-methoxy-N-(2-((R)-9-(pyridin-2-yl)-6-oxaspiro[4.5]decan-9-yl)ethyl)-2,3-dihydro-1H-inden-1-amine] are 1 nM and 129%.
On to `CO[C@H]1Cc2ccccc2[C@@H]1NCC[C@@]1(c2ccccn2)CCOC2(CCCC2)C1` [Example 17, (1S,2S)-2-methoxy-N-(2-((R)-9-(pyridin-2-yl)-6-oxaspiro[4.5]decan-9-yl)ethyl)-2,3-dihydro-1H-inden-1-amine], for which the EC50 is > 10000 nM and the Emax amounted to 0%.
